Measured values: PubChem BioAssay AID493043 (Johns Hopkins Ion Channel Center, 2011)

Molecular target: Potassium voltage-gated channel subfamily KQT member 4 (Homo sapiens) (UniProt P56696)
Experiment: activation of KCNQ4 potassium current – automated patch clamp, CHO cells, selectivity assay for KCNQ2 activator project, dose response (AID 493043)
Conditions: automated patch clamp current potentiation

Sequence of Potassium voltage-gated channel subfamily KQT member 4 (Homo sapiens) (P56696 whole entry, looked up): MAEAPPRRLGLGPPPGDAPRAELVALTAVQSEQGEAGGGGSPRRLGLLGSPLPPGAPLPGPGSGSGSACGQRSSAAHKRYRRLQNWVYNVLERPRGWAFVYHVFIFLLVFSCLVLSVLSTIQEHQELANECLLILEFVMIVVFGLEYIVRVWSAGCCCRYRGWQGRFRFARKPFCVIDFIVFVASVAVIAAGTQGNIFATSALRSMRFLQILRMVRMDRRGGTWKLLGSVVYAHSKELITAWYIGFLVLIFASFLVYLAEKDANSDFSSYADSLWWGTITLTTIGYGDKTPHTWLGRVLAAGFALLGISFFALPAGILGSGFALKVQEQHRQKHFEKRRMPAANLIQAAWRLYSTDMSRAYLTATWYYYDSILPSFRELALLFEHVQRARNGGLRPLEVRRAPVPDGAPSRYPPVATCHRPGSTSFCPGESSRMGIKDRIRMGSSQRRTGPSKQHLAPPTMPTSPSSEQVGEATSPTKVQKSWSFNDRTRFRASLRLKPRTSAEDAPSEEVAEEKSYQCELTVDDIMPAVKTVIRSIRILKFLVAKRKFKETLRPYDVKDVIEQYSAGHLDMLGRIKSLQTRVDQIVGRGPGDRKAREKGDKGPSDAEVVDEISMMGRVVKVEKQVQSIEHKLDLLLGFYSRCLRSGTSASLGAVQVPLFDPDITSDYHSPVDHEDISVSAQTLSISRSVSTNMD

EC50: 0.513 µM
Structure (SMILES): Cc1cc(C)c(NC(=O)C2CC3CCC2C3)c(C)c1 (stereo unspecified)
